Earlier results on three compounds are cited in US7157490B2, “Phenylalanine derivatives as dipeptidyl peptidase inhibitors for the treatment or prevention of diabetes” (Merck & Co., Inc., priority 2002, dated 2007).

In one data set the test system is rats. As to conditions: doubled from day 7.
Data set [1] has as its system mouse model of cyclophosphamide-induced neutropenia.
In the next data set the target is T1, DP-IV (Homo sapiens, UniProt P27487).
T1 construct: GRF is rapidly degraded in plasma to GRF[3–44]; from tissue
T1 sequence (P27487 39-766 limits assumed): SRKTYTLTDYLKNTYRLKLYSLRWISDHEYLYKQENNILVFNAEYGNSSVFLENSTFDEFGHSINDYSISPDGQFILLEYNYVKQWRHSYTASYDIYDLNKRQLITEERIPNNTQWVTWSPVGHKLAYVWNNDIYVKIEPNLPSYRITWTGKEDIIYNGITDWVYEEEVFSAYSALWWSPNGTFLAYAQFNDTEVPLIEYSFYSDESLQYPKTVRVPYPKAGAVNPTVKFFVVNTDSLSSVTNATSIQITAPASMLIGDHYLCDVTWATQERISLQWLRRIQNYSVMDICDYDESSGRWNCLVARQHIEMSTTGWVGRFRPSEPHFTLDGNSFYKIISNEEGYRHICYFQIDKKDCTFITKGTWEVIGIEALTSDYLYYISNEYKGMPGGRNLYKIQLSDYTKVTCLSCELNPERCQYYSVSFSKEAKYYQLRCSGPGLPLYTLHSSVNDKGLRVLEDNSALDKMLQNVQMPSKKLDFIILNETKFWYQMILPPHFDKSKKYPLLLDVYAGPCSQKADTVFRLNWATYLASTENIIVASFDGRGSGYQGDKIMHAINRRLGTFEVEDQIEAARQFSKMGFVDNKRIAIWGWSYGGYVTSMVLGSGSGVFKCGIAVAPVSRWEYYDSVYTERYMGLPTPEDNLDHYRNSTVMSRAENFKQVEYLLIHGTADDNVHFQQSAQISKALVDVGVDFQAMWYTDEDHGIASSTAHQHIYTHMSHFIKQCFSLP

Take `CC(C)N1CCC(c2ccccc2)(c2ccccc2)CC1` [Prodipine, Pro-Pro-diphenyl-phosphonate]: the cardiac allograft survival with rats is 14 day.
`CC(C)[C@H](N)C(=O)N1CCC[C@H]1B(O)O` [Val-Boro-Pro]: the hematopoiesis entry in data set [1] is “stimulated hematopoiesis”.
In the case of diprotin A, the “degradation of GRF in plasma to GRF[3–44]” value at DP-IV is recorded as “prevented”.
